According to patent publication US20260083704A1, “LXR MODULATORS WITH BICYCLIC CORE MOIETY FOR TREATING DYSLIPIDEMIAS” (OrsoBio, Inc., priority 2022, published 2026):

Key:
[1] = target: T1, GST-LXRβ ligand-binding domain (Homo sapiens, UniProt P55055); experiment: TR-FRETβ activity assay (NCoA3 coactivator peptide recruitment); format: biochemical; settings: 1 μM 24(S)-25-epoxycholesterol prestimulation
T1 construct: amino acids 156-461; NP009052; made in house; host or cells: E. coli
T1 sequence (P55055 156-460 limits assumed): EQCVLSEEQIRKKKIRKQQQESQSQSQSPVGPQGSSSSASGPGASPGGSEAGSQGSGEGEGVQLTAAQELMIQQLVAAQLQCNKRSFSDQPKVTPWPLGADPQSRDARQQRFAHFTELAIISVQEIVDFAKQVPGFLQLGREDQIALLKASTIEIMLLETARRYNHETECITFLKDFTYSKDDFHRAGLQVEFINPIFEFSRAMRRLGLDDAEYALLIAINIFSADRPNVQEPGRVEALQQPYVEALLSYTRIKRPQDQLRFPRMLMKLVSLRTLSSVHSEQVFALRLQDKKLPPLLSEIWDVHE
Summary of the method: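 Inverse-agonist format, with LXR prestimulated by 1 μM 24(S)-25-epoxycholesterol in pH 6.8 Tris/HCl, 240 mM KCl, BSA and Triton. Ten concentrations from 50 μM to 0.002 μM were equilibrated 1 h at 4° C with 76 nM GST-LXRβ LBD and 400 nM biotin-NCoA3 peptide. Peptide recruitment detected by 665/615 nm TR-FRET.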

[2] = target: T2, LXRβ (Homo sapiens, UniProt P55055); experiment: LXR Gal4 reporter transient transfection assay (mammalian two-hybrid, HEK293), LXRβ; format: cell-based; parameters: LXRβ (amino acids 156-461); expressed in transfected cells; host or cells: HEK293; settings: full length (FL) LXRβ, HEK293; read-out: FL-M2H Gal4β
T2 sequence (P55055 1-460): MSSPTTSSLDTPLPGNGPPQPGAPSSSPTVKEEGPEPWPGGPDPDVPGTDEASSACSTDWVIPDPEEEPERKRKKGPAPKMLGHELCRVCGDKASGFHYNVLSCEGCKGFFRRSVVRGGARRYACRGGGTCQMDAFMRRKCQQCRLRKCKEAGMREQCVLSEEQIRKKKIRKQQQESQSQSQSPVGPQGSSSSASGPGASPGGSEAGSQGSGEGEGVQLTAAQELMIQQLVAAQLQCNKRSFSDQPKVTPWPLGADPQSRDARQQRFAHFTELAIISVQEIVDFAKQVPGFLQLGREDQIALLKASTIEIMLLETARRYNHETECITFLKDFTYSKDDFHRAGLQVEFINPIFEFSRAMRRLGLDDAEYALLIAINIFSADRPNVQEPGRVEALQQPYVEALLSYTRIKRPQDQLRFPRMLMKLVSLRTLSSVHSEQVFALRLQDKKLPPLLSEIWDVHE
Summary of the method: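 Mammalian two-hybrid read-out of LXR–coactivator (SRC1) or corepressor (NCoR) interaction: firefly luciferase under GAL4 response elements, normalised via Renilla co-transfection. LXRα/β full-length or LBD fusions expressed transiently in HEK293; compounds (final DMSO ≤0.2%) given 4 h after transfection for 16 h before lysis.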

Structure (SMILES) | EC50 [1] | EC50 [2]
Cc1ccc(S(=O)(=O)n2c(-c3cccc(N4CC(C(=O)O)C4)c3)c(-c3ccsc3C=O)c3cc(F)ccc32)cc1 [3/5] | 0.1 to 1 µM | 0.1 to 1 µM
Cc1ccc(S(=O)(=O)n2c(-c3cccc(N4CC(C(=O)O)C4)c3)c(-c3ccccc3C3COC3)c3cc(F)ccc32)cc1 [3/31] | 0.1 to 1 µM | 0.1 to 1 µM
N#Cc1cccc(C#N)c1-c1c(-c2cccc(-c3c(F)cc(OCC(=O)O)cc3F)c2)n(S(=O)(=O)c2ccc(C(F)F)cc2)c2ccc(F)cc12 [3/71] | < 0.1 µM | < 0.1 µM
Cc1ccc(S(=O)(=O)n2c(-c3cccc(N4CC(C(=O)O)C4)c3)c(-c3ccsc3C(F)F)c3cc(F)ccc32)cc1 [3/4] | 0.1 to 1 µM | < 0.1 µM
Cc1ccc(S(=O)(=O)n2c(-c3cccc(N4CC(C(=O)O)C4)c3)c(-c3ccsc3CCO)c3cc(F)ccc32)cc1 [3/27] | 1 to 10 µM | 0.1 to 1 µM
O=C(O)c1ccc(-c2cccc(-c3c(-c4cccc5c4OCO5)c4cc(F)ccc4n3S(=O)(=O)c3ccc(C(F)F)cc3)c2)c(Cl)c1 [11/44] | < 0.1 µM | < 0.1 µM
COc1cc(-c2c(-c3cccc(-c4ccc(C(=O)O)cc4Cl)c3)n(S(=O)(=O)c3ccc(C(F)F)cc3)c3ccc(F)cc23)c2c(C#N)cnn2c1 [11/46] | < 0.1 µM | < 0.1 µM
Cc1ccc(S(=O)(=O)n2c(-c3cccc(-c4ccc(CO)c(S(=O)(=O)CC(=O)O)c4)c3)c(-c3ccsc3C#N)c3ccccc32)cc1 [5/1] | 0.1 to 1 µM | 0.1 to 1 µM
Cc1ccc(S(=O)(=O)n2c(-c3cccc(C4CC4C(=O)O)c3)c(-c3ccsc3C#N)c3ncccc32)cc1 (stereo not shown) [Compound 4] | 1 to 10 µM | 0.1 to 1 µM
COc1cccc(-c2c(-c3cccc(-c4ccc(C(=O)O)cc4Cl)c3)n(S(=O)(=O)c3ccc(C)cc3)c3ccc(F)cc23)c1C#N [11/3] | < 0.1 µM | < 0.1 µM
N#Cc1cccc(C#N)c1-c1c(-c2cccc(-c3ccc(C(=O)O)cc3F)c2)n(S(=O)(=O)C2CCC(C(F)(F)F)CC2)c2ccc(F)cc12 (stereo not shown) [11/64] | 0.1 to 1 µM | < 0.1 µM
O=C(O)c1ccc(-c2cccc(-c3c(-c4ccccc4)c4cc(F)ccc4n3S(=O)(=O)c3ccc(C(F)F)cc3)c2)c(Cl)c1 [C11/39] | 0.1 to 1 µM | < 0.1 µM
O=C(O)C1CC1c1cccc(-c2c(-c3c(Cl)cccc3Cl)c3cc(F)ccc3n2S(=O)(=O)c2ccc(C(F)F)cc2)c1 (stereo not shown) [11/69] | < 0.1 µM | < 0.1 µM
N#CC1=C(c2c(-c3cccc(-c4ccc(C(=O)O)cc4Cl)c3)n(S(=O)(=O)c3ccc(C(F)F)cc3)c3ccc(F)cc23)CCCC1 [11/42] | > 10 µM | 0.1 to 1 µM
N#Cc1ccncc1-c1c(-c2cccc(-c3cc(F)c(C(=O)O)cc3Cl)c2)n(S(=O)(=O)c2ccc(C(F)F)cc2)c2ccc(F)cc12 [11/10] | < 0.1 µM | < 0.1 µM
Cc1ccc(S(=O)(=O)n2c(-c3cccc(N4CC(C(=O)O)C4)c3)c(-c3ccoc3C#N)c3cc(F)ccc32)cc1 [3/26] | 1 to 10 µM | < 0.1 µM
Cc1ccc(S(=O)(=O)n2c(-c3cccc(N4CC(C(=O)O)C4)c3)c(-c3ccsc3C#N)c3cc(F)ccc32)cc1 [3/32] | 0.1 to 1 µM | < 0.1 µM
N#Cc1scnc1-c1c(-c2cccc(-c3cc(F)c(C(=O)O)cc3Cl)c2)n(S(=O)(=O)c2ccc(C(F)F)cc2)c2ccc(F)cc12 [11/9] | < 0.1 µM | < 0.1 µM
O=C(O)c1ccc(-c2cccc(-c3c(-c4ccsc4C(F)(F)F)c4cc(F)ccc4n3S(=O)(=O)c3ccc(C(F)F)cc3)c2)c(Cl)c1 [11/22] | < 0.1 µM | < 0.1 µM
N#Cc1cccc(C#N)c1-c1c(-c2cccc(-c3ccc(C(=O)O)cc3Cl)c2)n(S(=O)(=O)c2ccc(C(F)F)cc2)c2cnc(O)cc12 [3/70] | 0.1 to 1 µM | 0.1 to 1 µM
Cc1ccc(S(=O)(=O)n2c(-c3cccc(-c4ccc(C(=O)O)c(Cl)c4)c3)c(-c3ccsc3C#N)c3cc(F)ccc32)cc1 [3/49] | 0.1 to 1 µM | < 0.1 µM
N#Cc1cccc(C#N)c1-c1c(-c2cccc(-c3ccc(S(=O)(=O)O)cc3Cl)c2)n(S(=O)(=O)c2ccc(C(F)F)cc2)c2ccc(F)cc12 [12/10] | < 0.1 µM | < 0.1 µM

Structure (SMILES) | EC50 [1] | EC50 [2]
Cc1ccc(S(=O)(=O)n2c(-c3cccc(N4CCC(C)(C(=O)O)CC4)c3)c(-c3ccsc3C#N)c3cc(F)ccc32)cc1 [3/50] | 0.1 to 1 µM | < 0.1 µM
Cc1ccc(S(=O)(=O)n2c(-c3cccc(C4CC4C(=O)O)c3)c(-c3ccsc3C#N)c3ccncc32)cc1 (stereo not shown) [4/1] | 1 to 10 µM | < 0.1 µM
Cc1ccc(S(=O)(=O)n2c(-c3cccc(N4CC(C(=O)O)C4)c3)c(-c3ccsc3C#N)c3sccc32)cc1 [4/3] | 1 to 10 µM | < 0.1 µM
N#Cc1sccc1-c1c(-c2cccc(-c3ccc(C(=O)O)cc3Cl)c2)n(S(=O)(=O)c2ccc(F)cc2)c2ccc(F)cc12 [11/18] | 0.1 to 1 µM | < 0.1 µM
CC(C)(C)OC(=O)CNC(=O)c1ccc(-c2cccc(-c3c(-c4c(C#N)cccc4C#N)c4cc(F)ccc4n3S(=O)(=O)c3ccc(C(F)F)cc3)c2)c(Cl)c1 [6/3] | < 0.1 µM | < 0.1 µM
COc1cc(C(=O)O)ccc1-c1cccc(-c2c(-c3ccccc3C#N)c3cc(F)ccc3n2S(=O)(=O)c2ccc(C(F)F)cc2)c1 [11/29] | < 0.1 µM | < 0.1 µM
Cc1ccc(S(=O)(=O)n2c(-c3cccc(N4CC(C(=O)O)C4)c3)c(-c3ccsc3/C=N/O)c3cc(F)ccc32)cc1 [3/7] | 1 to 10 µM | < 0.1 µM
N#Cc1sccc1-c1c(-c2cccc(C3CC3C(=O)NO)c2)n(S(=O)(=O)c2ccc(Cl)cc2)c2ccccc12 (stereo not shown) [6/1] | 0.1 to 1 µM | < 0.1 µM
N#Cc1ccccc1-c1c(-c2cccc(-c3ccc(C(=O)O)c(O)c3Cl)c2)n(S(=O)(=O)c2ccc(C(F)F)cc2)c2ccc(F)cc12 [11/32] | < 0.1 µM | < 0.1 µM
Cc1ccc(S(=O)(=O)n2c(-c3cccc(-c4ccc(C(=O)O)cc4Cl)c3)c(-c3ccsc3C#N)c3cc(F)ccc32)cc1F [11/19] | 0.1 to 1 µM | < 0.1 µM
Cc1cc(S(=O)(=O)n2c(-c3cccc(-c4ccc(C(=O)O)cc4Cl)c3)c(-c3ccsc3C#N)c3cc(F)ccc32)ccc1F [3/23] | 0.1 to 1 µM | < 0.1 µM
Cc1ccc(S(=O)(=O)n2c(-c3cccc(-c4ccc(C(C(=O)O)N(C)C)cc4Cl)c3)c(-c3ccsc3C#N)c3cc(F)ccc32)cc1 (stereo not shown) [Compound 3] | < 0.1 µM | < 0.1 µM
Cc1ccc(S(=O)(=O)n2c(-c3cccc(-c4ccc(C(=O)O)cc4Cl)c3)c(-c3cc(C)ccc3C#N)c3cc(F)ccc32)cc1 [11/5] | < 0.1 µM | < 0.1 µM
Cc1ccc(S(=O)(=O)n2c(-c3cccc(C4(C)CC4C(=O)O)c3)c(-c3ccsc3C#N)c3cc(F)ccc32)cc1 (stereo not shown) [3/1] | 0.1 to 1 µM | 0.1 to 1 µM
Cc1ccc(S(=O)(=O)n2c(-c3cccc(N4CC(C(=O)O)C4)c3)c(-c3ccsc3C(=O)N(C)C)c3cc(F)ccc32)cc1 [3/28] | > 10 µM | 1 to 10 µM
Cc1n[nH]c(C)c1-c1c(-c2cccc(-c3ccc(C(=O)O)cc3Cl)c2)n(S(=O)(=O)c2ccc(C(F)F)cc2)c2ccc(F)cc12 [11/24] | 0.1 to 1 µM | 0.1 to 1 µM
N#Cc1cccc(C#N)c1-c1c(-c2cccc(C3CC3C(=O)O)c2)n(S(=O)(=O)c2ccc(C(F)F)cc2)c2ccc(F)cc12 (stereo not shown) [3/68] | 0.1 to 1 µM | < 0.1 µM
N#Cc1cccc(C#N)c1-c1c(-c2cccc(-c3ccc(C(=O)O)cc3Cl)c2)n(S(=O)(=O)C2CC3CCC2C3)c2ccc(F)cc12 (stereo not shown) [11/66] | 0.1 to 1 µM | < 0.1 µM
Cc1ccc(S(=O)(=O)n2c(-c3cccc(N4CC(C(=O)O)C4)c3)c(-c3ccsc3C#N)c3cc(F)ccc32)c(F)c1 [3/14] | 1 to 10 µM | 0.1 to 1 µM
Cc1ccc(S(=O)(=O)n2c(-c3cccc(-c4ccc5c(C(=O)O)n[nH]c5c4)c3)c(-c3ccsc3C#N)c3cc(F)ccc32)cc1 [12/9] | 0.1 to 1 µM | 0.1 to 1 µM
N#Cc1cccc(C#N)c1-c1c(-c2cccc(C34CCC(C(=O)O)(CC3)CC4)c2)n(S(=O)(=O)c2ccc(C(F)F)cc2)c2ccc(F)cc12 [11/58] | < 0.1 µM | < 0.1 µM
Cc1cccc(C(F)F)c1-c1c(-c2cccc(-c3ccc(C(=O)O)cc3Cl)c2)n(S(=O)(=O)c2ccc(C(F)F)cc2)c2ccc(F)cc12 [11/38] | < 0.1 µM | < 0.1 µM
